Assay results published in patent US20070280982A1, “Antimicrobial compositions comprising hop acid alkali salts and uses thereof” (priority 2006, published 2007).

Tests used:
B. subtilis = assay: Shelf-life extension (bacteriostatic) assay, broth dilution, FIG. 1 and FIG. 3; assay type: cell-based, Bacillus subtilis; details: glycine alone versus combined with beta acid sodium salts
Protocol: Shelf-life extension assays were performed using the broth dilution method. Final inoculum concentration was […]. Microbial growth was assayed with a spectrophotometer by monitoring the absorption at 600 nm after 2 to 3 days. […] After incubation, colonies were counted.

Bacillus subtilis = details: cited from earlier work

SMILES: NCC(=O)O [Glycine]
- Effect on bacterial growth, alone or in combination (FIG. 3) (B. subtilis): almost no effect on bacterial growth
- Known activity against Bacillus subtilis (Bacillus subtilis): relatively weak activity
